Assay results published in paper PMC3198786, “LL37 and Cationic Peptides Enhance TLR3 Signaling by Viral Double-stranded RNAs” (PLoS ONE, 2011).

What was measured:
TLR3 signaling [1] = experiment: poly(I:C)-induced IL6 production by BEAS2B cells (ELISA); type: cell-based, human; conditions: for Fold induction above poly(I:C) induced IL6 production (BEAS2B): BEAS2B cells, 0.13 µg/ml poly(I:C) ± peptides (5 µM), IL6 ELISA, number of experiments in parentheses, duplicate or triplicate per experiment
Procedure: (§1) BEAS2B cells were plated at 1.5×10^4 cells/well in 96-well plates. 24 h after plating, the media was replaced with 50 µl of media containing the indicated treatments. Unless otherwise noted, poly(I:C) and LPS were added to the medium of cells to final concentrations of 0.13 µg/ml and 1 µg/ml, respectively. To activate RIG-I, 10 nM shR9 with a 5′ triphosphate was transfected into cells using Lipofectamine 2000 (Invitrogen, Carlsbad, CA). Supernatants were collected after 18-24 h and assayed for IL6 or IL8 secretion using an ELISA kit according to the manufacturer's protocol (BD Biosciences, San Diego, CA). The IL6 or IL8 level was calculated based on a standard curve fitted using a sigmoidal variable slope dose-response using software from GraphPad Prism (La Jolla, CA) and normalized to […] per well. For PBMCs, an initial 150,000 cells per well were suspended in 100 µl of RPMI medium (Invitrogen) containing 10% FBS and incubated overnight at 37°C, 5% CO2. The cells were treated with poly(I:C) at 5 µg/ml in the absence or presence of LL37 (5.6 µM) for 20–24 h. […] The supernatants were collected and frozen until analysis. Cytokine levels for IP10, IL1α and MCP1 were measured using a Milliplex assay kit (Millipore, Billerica, MA).

BEAS2B cells = experiment: WST-1 viability of BEAS2B cells; type: cell-based, human
Procedure: Supplementary file pone.0026632.s002.tif: Figure S2 Effects of LL37 concentration on viability of BEAS2B cells±poly(I:C). Cell viability was assessed using the WST-1 assay (Clontech, Mountain View CA). After treatments, cells were incubated with WST-1 substrate for 4 h and absorbance was measured at 450 nm with 630 nm as reference. The readout performed in the absence of LL37 (i.e. Control) is defined as 100%. […] The graph is representative of five experiments. […] (TIF) Click here for additional data file.

[2] = tested on: human peripheral blood mononuclear cells (PBMCs); experiment: Cytokine production in human PBMCs (Milliplex); type: cell-based; conditions: peptide 5.6 µM
Procedure: as §1

TLR3 = TLR3 ISRE luciferase reporter assay in 293T/TLR3 cells; type: cell-based, human; conditions: for Fold induction above Reovirus dsRNA (293T/TLR3 reporter): 293T/TLR3 cells, reovirus genomic RNA 2 µg/ml, peptides 2 µM, ISRE luciferase reporter
Procedure: Luciferase reporter assays were performed according to the protocol of [36]. Briefly, HEK 293T cells were plated in white-walled 96-well plates at 4.4×10^4 cells/well and transfected with plasmids pUNO-huTLR3 (0.5 ng/well), pISRE-Luc (30 ng/well) and phRL-TK (5 ng/well) using Lipofectamine 2000. The cells were grown for 24 h to allow expression from the plasmids. […] After 18–24 h of incubation, luciferase activity was determined using the Dual-Glo Luciferase assay system (Promega).

TLR3 signaling [3] = experiment: Viral RNA-induced IL6 production by BEAS2B cells; type: cell-based, human; conditions: Sc37 2.2 µM, n>4
Procedure: Poly(I:C) (Amersham Biosciences or GE Healthcare) was reconstituted in phosphate buffered saline (PBS; Invitrogen, Carlsbad, CA). Size-selected Poly(I:C) of 50–125 bps were generated as described previously. Fluorescently-labeled Cy5-poly(I:C) was made as described in [43]. LPS was from Sigma-Aldrich Inc. DsRNAs from Reovirus were extracted from purified virions (a kind gift from Dr. Danthi, Indiana University). […] The ssRNAs were then adjusted to a 1∶1 molar ratio in PBS and heated to 95°C for five minutes followed by slow cooling to room temperature to allow the strands to anneal to form S4 dsRNA. Plant endornavirus BPEV dsRNA was the kind gift of R. Valverde (Louisana State University, Baton Rouge, LA). Positive-strand ssRNA from hepatitis virus JFH1 was made by in vitro transcription from a cDNA of JFH-1 [63]. Plasmids encoding the wild-type TLR3, TLR4 and RIG-I were from InvivoGen (San Diego, CA). […]
BEAS2B cells were plated at 1.5×10^4 cells/well in 96-well plates. […] The IL6 or IL8 level was calculated based on a standard curve fitted using a sigmoidal variable slope dose-response using software from GraphPad Prism (La Jolla, CA) and normalized to µg/ml per well. […] Cytokine levels for IP10, IL1α and MCP1 were measured using a Milliplex assay kit (Millipore, Billerica, MA).

[4] = Negative-stain electron microscopy of particle dimensions; type: physicochemical; conditions: negative-stain TEM, pH 7.4, linear regression
Procedure: Poly(I:C) at 50 µg/ml (low molecular weight, Invitrogen) was incubated alone or with LL37 or Sc37 (each at 10 µM) in Tris-buffered saline, pH 7.4 at 4°C for 15 min. Sample of 10 µl was placed on top of a glow-discharged 400 mesh carbon-coated copper grid (EMS). After one min incubation at RT, the drop was removed by absorption onto filter paper. The grids containing the samples were then stained with 2% uranium acetate for 20 s. Excess stain was removed and the grids were air-dried for 15 min. Micrographs of the grids were taken with JEOL transmission microscope at 80 kV, using 40,000x magnification. The micrographs were collected and measurement of length and width of particles were calculated using EMAN software as described by. Data points for each treatment were fitted using linear regression and the slope of each line was calculated using GraphPad Prism software.

TLR4 signaling = experiment: LPS-induced IL6 production by BEAS2B cells (ELISA); type: cell-based, human; conditions: LPS 1 µg/ml, T3/T4 0.6–10 µM, Tat and Arg(9) 10 µM
Procedure: as §1

With `O=C(O[C@@H]1Cc2c(O)cc(O)cc2O[C@@H]1c1cc(O)c(O)c(O)c1)c1cc(O)c(O)c(O)c1` [EGCG] the “Effect on the Tat peptide's enhancement of IL6 production” value (TLR3 signaling [1]; BEAS2B, data not shown) was “did not affect”.

For `CC[C@H](C)[C@H](NC(=O)[C@H](CCCCN)NC(=O)[C@H](CCC(=O)O)NC(=O)[C@H](CCCCN)NC(=O)[C@H](CO)NC(=O)[C@H](CCCCN)NC(=O)[C@H](CCCNC(=N)N)NC(=O)[C@H](Cc1ccccc1)NC(=O)[C@H](Cc1ccccc1)NC(=O)[C@H](CC(=O)O)NC(=O)CNC(=O)[C@H](CC(C)C)NC(=O)[C@@H](N)CC(C)C)C(=O)NCC(=O)N[C@@H](CCCCN)C(=O)N[C@@H](CCC(=O)O)C(=O)N[C@@H](Cc1ccccc1)C(=O)N[C@@H](CCCCN)C(=O)N[C@@H](CCCNC(=N)N)C(=O)N[C@H](C(=O)N[C@H](C(=O)N[C@@H](CCC(N)=O)C(=O)N[C@@H](CCCNC(=N)N)C(=O)N[C@H](C(=O)N[C@@H](CCCCN)C(=O)N[C@@H](CC(=O)O)C(=O)N[C@@H](Cc1ccccc1)C(=O)N[C@@H](CC(C)C)C(=O)N[C@@H](CCCNC(=N)N)C(=O)N[C@@H](CC(N)=O)C(=O)N[C@@H](CC(C)C)C(=O)N[C@H](C(=O)N1CCC[C@H]1C(=O)N[C@@H](CCCNC(=N)N)C(=O)N[C@H](C(=O)N[C@@H](CCC(=O)O)C(=O)N[C@@H](CO)C(=O)O)[C@@H](C)O)C(C)C)[C@@H](C)CC)C(C)C)[C@@H](C)CC` [LL37], the “Toxicity in the presence of poly(I:C)” value (BEAS2B cells; BEAS2B, WST-1, LL37 3 µM) was “did not show significant toxicity”, the “Effect on cell viability in the absence of poly(I:C)” value (BEAS2B cells; BEAS2B, WST-1, LL37 up to 5 µM, representative of five experiments) was “no effect on cell viability” and the “Effect on BEAS2B cell viability” value (BEAS2B cells; at or less than 3 µM, by itself or in the presence of poly(I:C), WST-1, n = 5) was “minimal effects”. The “Cytotoxicity judged by morphology of PBMCs” value ([2]; data not shown) was “no obvious cytotoxicity”.

In the case of `COc1cc2ncnc(Nc3cccc(Cl)c3)c2cc1OC` [tyrphostin AG 1478], the “Effect on IL6 production induced by poly(I:C) or poly(I:C) in combination with LL37” value (TLR3 signaling [1]; BEAS2B, unpublished observations) is reported as “had no effect”.

With “LLGNFFRKSKQKIGKQFKRIVQRIKNFFRNLVPRTQS [Sc37]” the “Fold induction above poly(I:C) induced IL6 production (BEAS2B)” value (TLR3 signaling [1]) was 1.05±0.11 (6) fold, the “Enhancement of poly(I:C)-induced IL6 levels compared to poly(I:C) alone” value (TLR3 signaling [1]; BEAS2B, peptide 2.2 µM, poly(I:C) 0.13 µg/ml, 20 h, LL37 n = 23, Sc37 n = 7) was “did not enhance IL6 production” and the “Additional increase of reporter levels above that of the Reovirus dsRNAs” value (TLR3; 293T/TLR3, peptide 2 µM, Reovirus dsRNA, LL37 n = 8, Sc37 n = 4) was “did not affect reporter activity”. For the same compound, the “Fold induction above Reovirus dsRNA (293T/TLR3 reporter)” value (TLR3) was 1.0±0.03 (9) fold, the “Increase of IL1α, MCP1 and IP10 levels with poly(I:C) above poly(I:C) or peptide alone” value ([2]; poly(I:C) 5 µg/ml, 24 h, n = 3) was “did not significantly increase” and the “Effect on IL6 production by the viral RNAs tested” value (TLR3 signaling [3]) was “did not increase IL6 production”. For the same compound, the “Slope of best fit line of particle lengths and widths” value [4] was 0.8 ± 0.05.

With “NAKTRRHERRRKLAIER [P22N(14-30), arginine-containing peptide]” the “Fold induction above poly(I:C) induced IL6 production (BEAS2B)” value (TLR3 signaling [1]; 5 µM) was 1.0±0 (3) fold, the “Fold induction above poly(I:C) induced IL6 production (BEAS2B)” value (TLR3 signaling [1]; listed as P22(14-30), 5 µM) was “did not enhance TLR3 signaling” and the “Fold induction above Reovirus dsRNA (293T/TLR3 reporter)” value (TLR3) was 1.3±0.14 (4) fold.

In the case of “RQIKIWFQNRRMKWKK [Penetrin, peptide derived from the protein antennapedia; cell-penetrating peptide]”, the “Fold induction above poly(I:C) induced IL6 production (BEAS2B)” value (TLR3 signaling [1]) is reported as 2.9±1.2 (3) fold and the “Fold induction above Reovirus dsRNA (293T/TLR3 reporter)” value (TLR3) is reported as 1.1±0.05 (4) fold.

For “RRRRRRRRR [Arg(9), cell-penetrating peptide of nine arginines]”, the “Effect on LPS-induced IL6 production” value (TLR4 signaling) was “no effect on LPS signaling” and the “Fold induction above Reovirus dsRNA (293T/TLR3 reporter)” value (TLR3) was 1.5±0.17 (4) fold.

In the case of TRAQRRAAARGGGVVIAC [Peptide 3], the “Fold induction above poly(I:C) induced IL6 production (BEAS2B)” value (TLR3 signaling [1]) is reported as 3±0.62 (8) fold and the “Fold induction above Reovirus dsRNA (293T/TLR3 reporter)” value (TLR3) is reported as 1 fold.

In the case of “TRAQRRAAARGVQIVYKC [T4, peptide derived from the Brome mosaic virus (BMV) capsid]”, the “Fold induction above poly(I:C) induced IL6 production (BEAS2B)” value (TLR3 signaling [1]) is reported as 5.6±1.4 (6) fold, the “Effect on LPS-induced IL6 production” value (TLR4 signaling) is reported as “not affected” and the “Fold induction above Reovirus dsRNA (293T/TLR3 reporter)” value (TLR3) is reported as 1 fold.

For “TRAQRRAAARRNRACCPGCCS [T3, peptide derived from the Brome mosaic virus (BMV) capsid]”, the “Fold induction above poly(I:C) induced IL6 production (BEAS2B)” value (TLR3 signaling [1]) was 3±0.4 (8) fold, the “Effect on LPS-induced IL6 production” value (TLR4 signaling) was “not affected” and the “Fold induction above Reovirus dsRNA (293T/TLR3 reporter)” value (TLR3) was 1.3±0.08 (4) fold.

In the case of “TSAQSSAAASSNSACCPGCCS [T3Ser, variant of the peptide T3 that had the arginines substituted with serines]”, the “Fold induction above poly(I:C) induced IL6 production (BEAS2B)” value (TLR3 signaling [1]; 5 µM) is reported as 0.8±0.12 (4) fold, the “Fold induction above poly(I:C) induced IL6 production (BEAS2B)” value (TLR3 signaling [1]; listed as T3ser, 5 µM) is reported as “lost the ability to enhance IL6 production” and the “Fold induction above Reovirus dsRNA (293T/TLR3 reporter)” value (TLR3) is reported as 1 fold.

With “YGRKKRRQRRR [Tat47-57, Tat peptide that is rich in basic residues; cell-penetrating peptide]” the “Fold induction above poly(I:C) induced IL6 production (BEAS2B)” value (TLR3 signaling [1]; 5 µM) was 3.7±0.43 (10) fold, the “Fold induction above poly(I:C) induced IL6 production (BEAS2B)” value (TLR3 signaling [1]; listed as Tat peptide, 5 µM) was “at least 2.9 fold” and the “Effect on LPS-induced IL6 production” value (TLR4 signaling) was “no effect on LPS signaling”. The “Fold induction above Reovirus dsRNA (293T/TLR3 reporter)” value (TLR3) was 1.3±0.19 (3) fold.

In the case of mCRAMP, the “Enhancement of IL6 production in response to poly(I:C)” value (TLR3 signaling [1]; BEAS2B, KR18-37 4 µM, mCRAMP 5 µM, poly(I:C) 0.13 µg/ml, 24 h, n = 3) is reported as “unable to enhance IL6 production”.

With poly(I:C) the “IL6 levels above basal levels” value (TLR3 signaling [1]; BEAS2B, poly(I:C) added to medium, n = 12) was 15 ± 2.2 fold and the “Slope of best fit line of particle lengths and widths” value [4] was 0.53 ± 0.12.
